Laboratory results reported in ChEMBL document CHEMBL5303573, “Mapping human microbiome drug metabolism by gut bacteria and their genes” (Nature, 2019).
Non-standard residues stand in square brackets, D forms with d. Residues, ends and D or L forms follow the SMILES beside them. pGlu = O=C1CC[C@@H](C(=O)O)N1; Thz = O=C(O)[C@@H]1CSCN1

What was measured:
[1] = The drug is tested on Providencia rettgeri strain: DSM1131 for biotransformation. The drug concentrations were measured before and after a 12-h incubation by liquid-chromatography-coupled mass spectrometry (LC–MS); assay type: ADME; set-up: dose 2 uM, timepoint 0 vs 12 hours; settings: 2 µM
[2] = The drug is tested on Bacteroides ovatus strain: ATCC8483 for biotransformation. The drug concentrations were measured before and after a 12-h incubation by liquid-chromatography-coupled mass spectrometry (LC–MS); settings: 2 µM
[3] = The drug is tested on Bacteroides fragilis strain: HMW610 for biotransformation. The drug concentrations were measured before and after a 12-h incubation by liquid-chromatography-coupled mass spectrometry (LC–MS); settings: 2 µM
[4] = roseburia intestinalis, 12 h, 2 µM
Description: The drug is tested on Roseburia intestinalis strain: L1-82 for biotransformation. The drug concentrations were measured before and after a 12-h incubation by liquid-chromatography-coupled mass spectrometry (LC–MS)

[5] = bacteroides stercoris, 12 h, 2 µM
Description: The drug is tested on Bacteroides stercoris strain: ATCC43183 for biotransformation. The drug concentrations were measured before and after a 12-h incubation by liquid-chromatography-coupled mass spectrometry (LC–MS)

[6] = The drug is tested on Eggerthella lenta strain: ATCC25559 for biotransformation. The drug concentrations were measured before and after a 12-h incubation by liquid-chromatography-coupled mass spectrometry (LC–MS); settings: 2 µM

SMILES | Bacterial Biotransformation [1] | Bacterial Biotransformation [2] | Bacterial Biotransformation [3] | Bacterial Biotransformation [4] | Bacterial Biotransformation [5] | Bacterial Biotransformation [6]
C[C@@H](CO)NC(=O)[C@@H]1C=C2c3cccc4[nH]cc(c34)C[C@H]2N(C)C1.O=C(O)/C=C\C(=O)O [ERGONOVINE MALEATE] | Compound NOT metabolized | Compound metabolized | Compound metabolized | Compound NOT metabolized | Compound NOT metabolized | 
CCc1cccc2c3c([nH]c12)C(CC)(CC(=O)O)OCC3 (stereo not drawn) [ETODOLAC] | Compound NOT metabolized | Compound NOT metabolized |  |  | Compound NOT metabolized | Compound NOT metabolized
COc1cc2nc(N(C)CCCNC(=O)C3CCCO3)nc(N)c2cc1OC (stereo not drawn) [ALFUZOSIN] | Compound NOT metabolized | Compound NOT metabolized |  | Compound NOT metabolized | Compound NOT metabolized | 
O=P(O)(O)O.c1ccc(CN(CC2=NCCN2)c2ccccc2)cc1 [ANTAZOLINE PHOSPHATE] | Compound NOT metabolized | Compound NOT metabolized | Compound NOT metabolized | Compound NOT metabolized | Compound NOT metabolized | 
COc1cc(C(=O)NCc2ccc(OCCN(C)C)cc2)cc(OC)c1OC [TRIMETHOBENZAMIDE] |  | Compound NOT metabolized | Compound NOT metabolized | Compound NOT metabolized | Compound NOT metabolized | 
O=C1CC2(CCCC2)CC(=O)N1CCCCN1CCN(c2ncccn2)CC1 [BUSPIRONE] |  | Compound NOT metabolized | Compound NOT metabolized | Compound NOT metabolized | Compound NOT metabolized | 
CC(CN1c2ccccc2Sc2ccccc21)N(C)C (stereo not drawn) [PROMETHAZINE] |  | Compound NOT metabolized | Compound NOT metabolized |  | Compound NOT metabolized | 
CCN(C(C)=O)c1cccc(-c2ccnc3c(C#N)cnn23)c1 [ZALEPLON] | Compound NOT metabolized | Compound NOT metabolized | Compound metabolized |  | Compound NOT metabolized | 
C[C@@H](c1ncncc1F)[C@](O)(Cn1cncn1)c1ccc(F)cc1F [VORICONAZOLE] |  | Compound NOT metabolized | Compound metabolized | Compound NOT metabolized |  | Compound NOT metabolized
CCOc1ccc(NC(C)=O)cc1 [PHENACETIN] | Compound NOT metabolized | Compound NOT metabolized | Compound NOT metabolized | Compound NOT metabolized | Compound NOT metabolized | 
NC(CO)(CO)CO.O=C(c1ccccc1)c1ccc2n1CCC2C(=O)O (stereo not drawn) [KETOROLAC TROMETHAMINE] | Compound NOT metabolized |  | Compound metabolized |  |  | 
CN1CC(=O)N2[C@H](c3ccc4c(c3)OCO4)c3[nH]c4ccccc4c3C[C@@H]2C1=O | Compound NOT metabolized | Compound metabolized | Compound metabolized | Compound NOT metabolized | Compound NOT metabolized | 
Cc1ccc(S(=O)(=O)NC(=O)NN2CCCCCC2)cc1 [TOLAZAMIDE] | Compound NOT metabolized | Compound metabolized | Compound metabolized | Compound NOT metabolized | Compound metabolized | 
O=C1N=C([O-])NC1(c1ccccc1)c1ccccc1.[Na+] [PHENYTOIN SODIUM] | Compound NOT metabolized | Compound metabolized | Compound NOT metabolized | Compound NOT metabolized | Compound NOT metabolized | 
CC(O)(CS(=O)(=O)c1ccc(F)cc1)C(=O)Nc1ccc(C#N)c(C(F)(F)F)c1 (stereo not drawn) [BICALUTAMIDE] |  | Compound NOT metabolized | Compound metabolized | Compound NOT metabolized | Compound NOT metabolized | 
COc1ccccc1OCC(O)CN1CCN(CC(=O)Nc2c(C)cccc2C)CC1 (stereo not drawn) [RANOLAZINE] | Compound NOT metabolized | Compound NOT metabolized | Compound NOT metabolized | Compound NOT metabolized | Compound NOT metabolized | 
CN(CCOc1ccc(CC2SC(=O)NC2=O)cc1)c1ccccn1.O=C(O)/C=C\C(=O)O (stereo not drawn) [ROSIGLITAZONE MALEATE] | Compound NOT metabolized | Compound NOT metabolized |  | Compound NOT metabolized | Compound NOT metabolized | 
O=C(CCCN1CCC2(CC1)C(=O)NCN2c1ccccc1)c1ccc(F)cc1 [SPIPERONE] |  | Compound NOT metabolized | Compound NOT metabolized |  | Compound NOT metabolized | 
O=C1CC[C@@H](C(=O)N2CSC[C@H]2C(=O)O)N1 [PIDOTIMOD] ([pGlu]-[Thz]-OH) | Compound NOT metabolized | Compound metabolized | Compound metabolized | Compound NOT metabolized | Compound metabolized | 
Br.CN1CCC[C@@H]1Cc1c[nH]c2ccc(CCS(=O)(=O)c3ccccc3)cc12 [ELETRIPTAN HYDROBROMIDE] | Compound NOT metabolized | Compound NOT metabolized | Compound NOT metabolized | Compound NOT metabolized | Compound NOT metabolized | 
CCCc1nn(C)c2c(=O)[nH]c(-c3cc(S(=O)(=O)N4CCN(C)CC4)ccc3OCC)nc12.O=C(O)CC(O)(CC(=O)O)C(=O)O [SILDENAFIL CITRATE] |  | Compound metabolized |  | Compound NOT metabolized | Compound NOT metabolized | 
